The values below come from PubChem BioAssay (NCI).

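Each compound was tested at five concentrations against cells in 96-well plates for 48 hours. Definition used: TGI = concentration required for complete inhibition of growth.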 Where a SMILES comes first, the peptide text is derived from it. The star is where a group is joined. Boc = CC(C)(C)OC(=O)*

One test has as its system HCT-15 colon. Briefly: NCI-60 cell line screen, 48 h.
The compound `O=C1NC(=O)C2C(=O)NC(=O)C1C2c1c(Cl)cccc1Cl` (stereo not given) came in with a TGI greater than 100 µM.
On to `CCC(CCCN)Nc1cc(OC)cc2c(C)ccnc12` (stereo not given), for which the TGI came to 58.4 µM.

The next test deals with OVCAR-3 ovarian. Description: NCI-60 cell line screen, 48 h.
The compound `COc1ccc2c(c1)C(=O)C1CC(=O)CCC21` (stereo not given) returned a TGI greater than 100 µM.
Same read-out and setting: as for `Cc1n[nH]c(=O)n1N1C(=O)CCCC1=O`, the figure is greater than 100 µM.
The same measure, in the same setting: as for `Cc1ccccc1-n1c(=O)c2ncn(C3CCCO3)c2n(-c2ccccc2C)c1=S` (stereo not given), the figure is greater than 100 µM; as for `NC(N)=NCC[C@H](NC(=O)OCCCCCn1ccc(=O)[nH]c1=O)C(=O)O`, greater than 100 µM.
In turn, `CSc1nc2c(c(=O)[nH]1)N=C(c1ccc([N+](=O)[O-])cc1)CC(c1ccccc1)N2` (stereo not given) yielded a TGI greater than 100 µM.
`O=c1[nH]cc(-c2c[nH]c3ccccc23)nc1-c1c[nH]c2ccccc12` registered a TGI of 23.3 µM.
Compound `CC(C)(C)OC(=O)NC(Cc1ccc(O)cc1)C(=O)N1CCCC1C(=O)O` (stereo not drawn) (Boc-Tyr-Pro-OH; configuration not given here) came in with a TGI greater than 100 µM.
Still for that read-out and setting: to `Nc1n[n+](CC(=O)c2ccccc2)c2sc(-c3ccccc3)nn12` belongs greater than 100 µM; to `O=C(O)c1ccc(C2COc3ccc(Cl)cc3C2)cc1` (stereo not given), greater than 100 µM.
On the same count and under the same terms, to `CC(=O)NC(CCCNC(=O)N(CCCl)N=O)C(=O)NCc1ccccc1` (stereo not given) belongs greater than 100 µM; to `COC(=O)[C@H](CCSC)NC(=O)N[C@H](C)c1ccccc1`, greater than 100 µM.
The compound `CCN1C(=O)c2cc(OC)c(OC)cc2C(=O)C12OC(=O)c1cc3c(cc12)OCO3` (stereo not given) came in with a TGI greater than 100 µM.
`C=CC[C@@H](N)C(=O)N(C)[C@@H](C)[C@@H](O)c1ccccc1` came in with a TGI greater than 100 µM.
`CC(=O)CN(Cc1cc(C)c2c(c1)c1ccccc1n2Cc1ccccc1)S(=O)(=O)c1ccc(C)cc1` returned a TGI greater than 100 µM.
Turning to `O=C1NC(=O)C2C(=O)NC(=O)C1C2c1c(Cl)cccc1Cl` (stereo not given), the TGI was greater than 100 µM.
Regarding `CCC(CCCN)Nc1cc(OC)cc2c(C)ccnc12` (stereo not given), the TGI was 34.7 µM.

Another test concerns SF-539 CNS. Description: NCI-60 cell line screen, 48 h.
Consider `COc1ccc2c(c1)C(=O)C1CC(=O)CCC21` (stereo not given), for which the TGI was greater than 100 µM.
For `Cc1n[nH]c(=O)n1N1C(=O)CCCC1=O`, the TGI was greater than 100 µM.
As for `Cc1ccccc1-n1c(=O)c2ncn(C3CCCO3)c2n(-c2ccccc2C)c1=S` (stereo not given), the TGI is greater than 100 µM.
The compound `NC(N)=NCC[C@H](NC(=O)OCCCCCn1ccc(=O)[nH]c1=O)C(=O)O` displayed a TGI greater than 100 µM.
The same measure, in the same setting: to `CSc1nc2c(c(=O)[nH]1)N=C(c1ccc([N+](=O)[O-])cc1)CC(c1ccccc1)N2` (stereo not given) belongs 76.2 µM; to `CN(C)c1ccc(NN=C2SC(=Nc3ccccc3)C(=Nc3ccccc3)S2)cc1`, greater than 100 µM; to `CCOC(=O)C1=NOC2(C=C(Br)C(=O)C(Br)=C2)C1`, 20.2 µM.
In the case of `O=c1[nH]cc(-c2c[nH]c3ccccc23)nc1-c1c[nH]c2ccccc12`, the TGI stood at 55.5 µM.
Turning to `CC(C)(C)OC(=O)NC(Cc1ccc(O)cc1)C(=O)N1CCCC1C(=O)O` (stereo not drawn) (Boc-Tyr-Pro-OH; configuration not given here), the TGI was greater than 100 µM.
`Nc1n[n+](CC(=O)c2ccccc2)c2sc(-c3ccccc3)nn12` gave a TGI greater than 100 µM.
With `O=C(O)c1ccc(C2COc3ccc(Cl)cc3C2)cc1` (stereo not given), the TGI is greater than 100 µM.
`CC(=O)NC(CCCNC(=O)N(CCCl)N=O)C(=O)NCc1ccccc1` (stereo not given) displayed a TGI of 69.6 µM.
Consider `COC(=O)[C@H](CCSC)NC(=O)N[C@H](C)c1ccccc1`, for which the TGI is greater than 100 µM.
The compound `CCN1C(=O)c2cc(OC)c(OC)cc2C(=O)C12OC(=O)c1cc3c(cc12)OCO3` (stereo not given) showed a TGI greater than 100 µM.
As to `C=CC[C@@H](N)C(=O)N(C)[C@@H](C)[C@@H](O)c1ccccc1`, the TGI was greater than 100 µM.
Take `CC(=O)CN(Cc1cc(C)c2c(c1)c1ccccc1n2Cc1ccccc1)S(=O)(=O)c1ccc(C)cc1`: the TGI was greater than 100 µM.
On the same count and under the same terms, as for `O=C1NC(=O)C2C(=O)NC(=O)C1C2c1c(Cl)cccc1Cl` (stereo not given), the figure is greater than 100 µM; as for `CCC(CCCN)Nc1cc(OC)cc2c(C)ccnc12` (stereo not given), 33.4 µM.

The test system of the next test is 786-0 renal. Briefly: NCI-60 cell line screen, 48 h.
`COc1ccc2c(c1)C(=O)C1CC(=O)CCC21` (stereo not given) registered a TGI greater than 100 µM.
For `Cc1n[nH]c(=O)n1N1C(=O)CCCC1=O`, the TGI is greater than 100 µM.
The compound `Cc1ccccc1-n1c(=O)c2ncn(C3CCCO3)c2n(-c2ccccc2C)c1=S` (stereo not given) displayed a TGI greater than 100 µM.
For the compound `NC(N)=NCC[C@H](NC(=O)OCCCCCn1ccc(=O)[nH]c1=O)C(=O)O`, the TGI is greater than 100 µM.
Consider `CSc1nc2c(c(=O)[nH]1)N=C(c1ccc([N+](=O)[O-])cc1)CC(c1ccccc1)N2` (stereo not given), for which the TGI is greater than 100 µM.
Still for that read-out and setting: as for `CN(C)c1ccc(NN=C2SC(=Nc3ccccc3)C(=Nc3ccccc3)S2)cc1`, the figure is greater than 100 µM.
As to `CCOC(=O)C1=NOC2(C=C(Br)C(=O)C(Br)=C2)C1`, the TGI turned out to be 1.76 µM.
Consider `O=c1[nH]cc(-c2c[nH]c3ccccc23)nc1-c1c[nH]c2ccccc12`, for which the TGI came to 23.5 µM.
In turn, `CC(C)(C)OC(=O)NC(Cc1ccc(O)cc1)C(=O)N1CCCC1C(=O)O` (stereo not drawn) (Boc-Tyr-Pro-OH; configuration not given here) yielded a TGI greater than 100 µM.
Regarding `Nc1n[n+](CC(=O)c2ccccc2)c2sc(-c3ccccc3)nn12`, the TGI is greater than 100 µM.
Consider `O=C(O)c1ccc(C2COc3ccc(Cl)cc3C2)cc1` (stereo not given), for which the TGI was greater than 100 µM.
`CC(=O)NC(CCCNC(=O)N(CCCl)N=O)C(=O)NCc1ccccc1` (stereo not given) yielded a TGI greater than 100 µM.
With `COC(=O)[C@H](CCSC)NC(=O)N[C@H](C)c1ccccc1`, the TGI is greater than 100 µM.
With `CCN1C(=O)c2cc(OC)c(OC)cc2C(=O)C12OC(=O)c1cc3c(cc12)OCO3` (stereo not given), the TGI was 53.7 µM.
The compound `C=CC[C@@H](N)C(=O)N(C)[C@@H](C)[C@@H](O)c1ccccc1` yielded a TGI greater than 100 µM.
On to `CC(=O)CN(Cc1cc(C)c2c(c1)c1ccccc1n2Cc1ccccc1)S(=O)(=O)c1ccc(C)cc1`, for which the TGI is greater than 100 µM.
As to `O=C1NC(=O)C2C(=O)NC(=O)C1C2c1c(Cl)cccc1Cl` (stereo not given), the TGI was greater than 100 µM.
In turn, `CCC(CCCN)Nc1cc(OC)cc2c(C)ccnc12` (stereo not given) registered a TGI of 28.8 µM.

A further test has as its system HT29 colon. Briefly: NCI-60 cell line screen, 48 h.
Regarding `COc1ccc2c(c1)C(=O)C1CC(=O)CCC21` (stereo not given), the TGI was greater than 100 µM.
As to `Cc1n[nH]c(=O)n1N1C(=O)CCCC1=O`, the TGI was greater than 100 µM.
In the case of `Cc1ccccc1-n1c(=O)c2ncn(C3CCCO3)c2n(-c2ccccc2C)c1=S` (stereo not given), the TGI was greater than 100 µM.
`NC(N)=NCC[C@H](NC(=O)OCCCCCn1ccc(=O)[nH]c1=O)C(=O)O` gave a TGI greater than 100 µM.
Take `CSc1nc2c(c(=O)[nH]1)N=C(c1ccc([N+](=O)[O-])cc1)CC(c1ccccc1)N2` (stereo not given): the TGI came to 48 µM.
Still for that read-out and setting: to `CN(C)c1ccc(NN=C2SC(=Nc3ccccc3)C(=Nc3ccccc3)S2)cc1` belongs greater than 100 µM; to `CCOC(=O)C1=NOC2(C=C(Br)C(=O)C(Br)=C2)C1`, 4.68 µM; to `CC(C)(C)OC(=O)NC(Cc1ccc(O)cc1)C(=O)N1CCCC1C(=O)O` (stereo not drawn) (Boc-Tyr-Pro-OH; configuration not given here), greater than 100 µM.
On the same count and under the same terms, to `Nc1n[n+](CC(=O)c2ccccc2)c2sc(-c3ccccc3)nn12` belongs greater than 100 µM.
`O=C(O)c1ccc(C2COc3ccc(Cl)cc3C2)cc1` (stereo not given) yielded a TGI greater than 100 µM.
Regarding `CC(=O)NC(CCCNC(=O)N(CCCl)N=O)C(=O)NCc1ccccc1` (stereo not given), the TGI is greater than 100 µM.
As to `COC(=O)[C@H](CCSC)NC(=O)N[C@H](C)c1ccccc1`, the TGI was greater than 100 µM.
`CCN1C(=O)c2cc(OC)c(OC)cc2C(=O)C12OC(=O)c1cc3c(cc12)OCO3` (stereo not given) showed a TGI greater than 100 µM.
`CC(=O)CN(Cc1cc(C)c2c(c1)c1ccccc1n2Cc1ccccc1)S(=O)(=O)c1ccc(C)cc1` displayed a TGI greater than 100 µM.
`O=C1NC(=O)C2C(=O)NC(=O)C1C2c1c(Cl)cccc1Cl` (stereo not given) had a TGI greater than 100 µM.
On the same count and under the same terms, as for `CCC(CCCN)Nc1cc(OC)cc2c(C)ccnc12` (stereo not given), the figure is 28.6 µM.
